Results published in ChEMBL document CHEMBL4725493, “Novel 2-Aryloxazoline Compounds Exhibit an Inhibitory Effect on Candida spp., Including Antifungal-Resistant Isolates” (ACS Med Chem Lett, 2020).
In brackets after ≈: the same amount, converted by molar mass. Activity calls are given as the source filed them. No cut-off for these calls is given here.

Legend:
[1] = test system: Candida tropicalis; assay: Antifungal activity against Candida tropicalis ATCC 200956 by CLSI standard M27 broth microdilution method; type: functional
[2] = test system: Erythrocyte; assay: Hemolytic activity in human RBC by spectrophotometry; type: ADME, cell-based
[3] = test system: HepG2; assay: Cytotoxicity against human HepG2 cells assessed as reduction in cell viability by XTT assay; type: cell-based
[4] = Selectivity index, ratio of HA50 to human RCB to MIC of antifungal activity against Candida tropicalis ATCC 200956; type: toxicity; conditions: human red blood cells (RCB)
[5] = Selectivity index, ratio of CC50 of human HepG2 cells to MIC of antifungal activity against Candida tropicalis ATCC 200956; type: toxicity
[6] = test system: [Candida] auris; assay: Antifungal activity against Candida auris CBS 10913 by CLSI standard M27 broth microdilution method; type: functional; conditions: Candidozyma auris
[7] = test system: [Candida] auris; assay: Antifungal activity against Candida auris CBS 12766 by CLSI standard M27 broth microdilution method; type: functional; conditions: Candidozyma auris
[8] = test system: Candida duobushaemulonii; assay: Antifungal activity against Candida duobushaemulonis CBS 7799 by CLSI standard M27 broth microdilution method; type: functional; conditions: Candidozyma duobushaemuli
[9] = Antifungal activity against Candida pseudohaemulonis CBS 10004 by broth microdilution method; type: functional; conditions: Candidozyma pseudohaemuli
[10] = test system: Aspergillus fumigatus; assay: Antifungal activity against Aspergillus fumigatus ATCC 16913 by CLSI standard M38 broth microdilution method; type: functional, organism-based
[11] = test system: Aspergillus niger; assay: Antifungal activity against Aspergillus niger by CLSI standard M38 broth microdilution method; type: functional, organism-based
[12] = test system: Cryptococcus neoformans; assay: Fungicidal activity against Cryptococcus neoformans ATCC 208821 assessed as loss of fungal growth by CLSI method; type: functional, organism-based
[13] = test system: Cryptococcus gattii; assay: Fungicidal activity against Cryptococcus gattii ATCC 56990 assessed as loss of fungal growth by CLSI method; type: functional, organism-based; conditions: Cryptococcus bacillisporus

Row | SMILES | MIC [1] [µg/mL] | Activity [2] [µg/mL] | CC50 [3] [µg/mL] | selectivity ratio [4] | selectivity ratio [5] | MIC [6] [µg/mL] | MIC [7] [µg/mL] | MIC [8] [µg/mL] | MIC [9] [µg/mL] | inhibition [10] | inhibition [11] | Activity [12] | Activity [13]
1 | C[C@@H]1OC(c2cc(Cl)c3ccccc3c2O)=NC1C(=O)Nc1ccc2ncsc2c1 (single isomer, unassigned) | ≤ 0.03 | > 128 | 16 (≈ 36.5 µM) | ≥ 1070 | ≥ 133 | 0.06 (≈ 0.137 µM) | 2 (≈ 4.57 µM) | 0.06 (≈ 0.137 µM) | 0.03 (≈ 0.0685 µM) | Active | Active | Active | Active
2 | C#CCNC(=O)C1N=C(c2cc(Cl)c3ccccc3c2O)O[C@H]1C (single isomer, unassigned) | ≤ 0.03 | > 128 | 33 (≈ 96.3 µM) | ≥ 512 | ≥ 132 |  |  |  |  |  |  |  | 
3 | CC[C@H](C)C[C@H](C)CCCCCCCCC(=O)N[C@H]1C[C@@H](O)[C@@H](NCCN)NC(=O)[C@@H]2[C@@H](O)CCN2C(=O)[C@H]([C@H](O)CCN)NC(=O)[C@H]([C@H](O)[C@@H](O)c2ccc(O)cc2)NC(=O)[C@@H]2C[C@@H](O)CN2C(=O)[C@H]([C@@H](C)O)NC1=O [CASPOFUNGIN] | ≤ 0.03 |  | 32 (≈ 29.3 µM) | ≥ 16 | 16 | 0.12 (≈ 0.11 µM) | 0.25 (≈ 0.229 µM) | 0.25 (≈ 0.229 µM) | 0.5 (≈ 0.457 µM) |  |  |  | 
4 | COc1cccc(O)c1C1=N[C@@H](C(=O)OCc2ccccc2)[C@@H](C)O1 | 0.12 (≈ 0.352 µM) | > 128 | 101 (≈ 296 µM) | ≥ 8 | 6 |  |  |  |  |  |  |  | 
5 | C[C@@H]1OC(c2cc(Cl)c3ccccc3c2O)=N[C@@H]1C(=O)OC/C=C/c1ccccc1 | ≤ 0.03 | > 128 | 10 (≈ 23.7 µM) | ≥ 8 | ≥ 1 |  |  |  |  |  |  |  | 
6 | C[C@@H]1OC(c2cc(Cl)c3ccccc3c2O)=NC1C(=O)Nc1ccccc1NC(=O)[C@@H]1N=C(c2cc(Cl)c3ccccc3c2O)O[C@@H]1C (single isomer, unassigned) | ≤ 0.03 | > 128 | 90 (≈ 132 µM) | ≥ 32 | ≥ 23 |  |  |  |  |  |  |  | 
7 | C[C@@H](O)[C@H](NC(=O)c1ccc2ccccc2c1O)C(=O)OCc1ccccc1 | 8 (≈ 21.1 µM) | > 128 | 40 (≈ 105 µM) | > 8 | 3 |  |  |  |  |  |  |  | 
8 | C[C@@H]1OC(c2cc(Cl)c3ccccc3c2O)=N[C@@H]1C(=O)OCc1ccccc1 | 0.06 (≈ 0.152 µM) | > 128 | 15 (≈ 37.9 µM) | ≥ 64 | 8 |  |  |  |  |  |  |  | 
9 | C[C@@H]1OC(c2ccc3ccccc3c2O)=N[C@@H]1C(=O)OCc1ccccc1 | ≤ 0.03 | > 128 | 88 (≈ 243 µM) | ≥ 256 | ≥ 176 |  |  |  |  |  |  |  | 
10 | C[C@H]1OC(c2ccc(N=[N+]=[N-])cc2O)=N[C@H]1C(=O)OCc1ccccc1 | ≤ 0.03 | > 128 | 100 (≈ 284 µM) | ≥ 128 | ≥ 100 |  |  |  |  |  |  |  | 
11 | COC(=O)C1N=C(c2cc(Cl)c3ccccc3c2O)O[C@H]1C (single isomer, unassigned) | 0.25 (≈ 0.782 µM) | > 128 | 11 (≈ 34.4 µM) | ≥ 16 | 1 |  |  |  |  |  |  |  | 
12 | C[C@H]1OC(c2ccc(Br)cc2O)=N[C@H]1C(=O)OCc1ccccc1 | 0.06 (≈ 0.154 µM) | > 128 | 62 (≈ 159 µM) | ≥ 128 | 62 |  |  |  |  |  |  |  | 
13 | CCNC(=O)C1N=C(c2cc(Cl)c3ccccc3c2O)O[C@H]1C (single isomer, unassigned) | 0.06 (≈ 0.18 µM) | > 128 |  | ≥ 128 | ≥ 128 |  |  |  |  |  |  |  | 
14 | C[C@H]1OC(c2ccc(I)cc2O)=N[C@H]1C(=O)OCc1ccccc1 | ≤ 0.03 | > 128 | 62 (≈ 142 µM) | ≥ 128 | ≥ 62 |  |  |  |  |  |  |  | 
15 | OC(Cn1cncn1)(Cn1cncn1)c1ccc(F)cc1F [FLUCONAZOLE] | 1 (≈ 3.27 µM) | > 128 | > 128 | ≥ 1 | ≥ 1 | 2 (≈ 6.53 µM) | > 0.064 | > 64 | 16 (≈ 52.2 µM) |  |  |  | 
16 | C[C@@H]1OC(c2cc(Cl)c3ccccc3c2O)=NC1C(=O)OCc1ccoc1 (single isomer, unassigned) | ≤ 0.03 | > 128 | 6 (≈ 15.6 µM) | ≥ 32 | ≥ 2 |  |  |  |  |  |  |  | 
17 | C[C@H]1OC(c2ccccc2O)=N[C@H]1C(=O)OCc1ccccc1 | ≤ 0.03 | > 128 | 102 (≈ 328 µM) | ≥ 32 | ≥ 26 |  |  |  |  |  |  |  | 
18 | COc1ccc(O)c(C2=N[C@@H](C(=O)OCc3ccccc3)[C@@H](C)O2)c1 | ≤ 0.03 | > 128 | 100 (≈ 293 µM) | ≥ 32 | 25 |  |  |  |  |  |  |  | 
19 | C[C@H]1OC(c2cc(I)ccc2O)=N[C@H]1C(=O)OCc1ccccc1 | ≤ 0.03 | > 128 | 64 (≈ 146 µM) | ≥ 128 | ≥ 64 |  |  |  |  |  |  |  | 
20 | C[C@@H]1OC(c2cc(Br)c3ccccc3c2O)=N[C@@H]1C(=O)OCc1ccccc1 (single isomer, unassigned) | ≤ 0.03 | > 128 | 9 (≈ 20.4 µM) | ≥ 256 | ≥ 18 |  |  |  |  |  |  |  | 
21 | C[C@@H]1[C@H](O)[C@@H](C)/C=C/C=C/C=C/C=C/C=C/C=C/C=C/[C@H](O[C@@H]2O[C@H](C)[C@@H](O)[C@H](N)[C@@H]2O)C[C@@H]2O[C@](O)(C[C@@H](O)C[C@@H](O)[C@H](O)CC[C@@H](O)C[C@@H](O)CC(=O)O[C@H]1C)C[C@H](O)[C@H]2C(=O)O [AMPHOTERICIN B] | ≤ 0.03 | 17 | 4 (≈ 4.33 µM) | ≥ 68 | ≥ 16 | 0.5 (≈ 0.541 µM) | 2 (≈ 2.16 µM) | 4 (≈ 4.33 µM) | 8 (≈ 8.66 µM) |  |  |  | 
22 | C[C@@H]1OC(c2cc(Cl)c3ccccc3c2O)=N[C@@H]1C(=O)OC[C@H]1COC(C)(C)O1 | ≤ 0.03 | > 128 | 7.2 (≈ 17.1 µM) | ≥ 16 | ≥ 1 |  |  |  |  |  |  |  | 
23 | COC(=O)[C@H]1N=C(c2ccc3ccccc3c2O)O[C@H]1C | 0.06 (≈ 0.21 µM) | > 128 | 84 (≈ 294 µM) | ≥ 8 | 5 |  |  |  |  |  |  |  | 
24 | C[C@H]1OC(c2cc(Br)ccc2O)=N[C@H]1C(=O)OCc1ccccc1 | ≤ 0.03 | > 128 | 88 (≈ 226 µM) | ≥ 128 | ≥ 88 |  |  |  |  |  |  |  | 
25 | C=CCOC(=O)C1N=C(c2cc(Cl)c3ccccc3c2O)O[C@H]1C (single isomer, unassigned) | ≤ 0.03 | > 128 | 11 (≈ 31.8 µM) | ≥ 128 | ≥ 11 |  |  |  |  |  |  |  | 
26 | C[C@H]1OC(c2cc(F)ccc2O)=N[C@H]1C(=O)OCc1ccccc1 | ≤ 0.03 | > 128 | > 128 | ≥ 128 | ≥ 128 |  |  |  |  |  |  |  | 
27 | CCNC(=O)[C@H]1N=C(c2ccc3ccccc3c2O)O[C@H]1C | ≤ 0.03 | > 128 | > 128 | ≥ 128 | ≥ 128 |  |  |  |  |  |  |  | 
